The values that follow come from patent US6537990B1, “Combined preparations comprising morpholine anthracyclines and anticancer agent” (priority 1999, dated 2003).

Where “and” joins values, the source holds several entries; their conditions need not be identical. Equal values may be shown once. Where a name gives a salt, the structure may show the parent alone. Read-outs that look alike come from different tables or passages of the source.

For data set [1], the system named is tumor cells resistant to anthracyclines and presenting the mdr phenotype. The note with it: in vitro and in vivo; cited from earlier work.
The test system of data set [2] is tumor cells resistant to L-PAM, cisplatin (cDDP), CTX or Topoisomerase II inhibitors. The note with it: cited from earlier work.
Data set [3] relates to disseminated L1210 murine leukemia. Description: Antileukemic activity against disseminated L1210 murine leukemia. In kind it is in vivo, CD2F1 mice.
For data set [4] the following is noted: in vivo; cited from earlier work.

As to `CCC1(O)CC(OC2CC(N3CCOCC3)C(O)C(C)O2)c2c(O)c3c(c(O)c2C1O)C(=O)c1cccc(O)c1C3=O` (stereo not drawn) [MX2, 3′-deamino-3′(4-morpholinyl)-13-deoxo-10-hydroxy-carminomycin], the “Activity on tumor cells resistant to anthracyclines and presenting the mdr phenotype” value in data set [1] is reported as “active”. Further, in data set [2] (tumor cells resistant to CTX, L-Pam and cDDP), the “Cross-resistance on resistant tumor cells” value is given as “No cross-resistance”.

Turning to `COc1cccc2c1C(=O)c1c(O)c3c(c(O)c1C2=O)C[C@@](O)(C(=O)CO)C[C@@H]3O[C@H]1C[C@H](N2CCO[C@H](OC)C2)[C@H](O)[C@H](C)O1` [PNU-152243, 3′deamino-3′(2-methoxy-4-morpholinyl)doxorubicin. HCl], the “ILS % (Increased in Life Span)” value in data set [3] (PNU-152243 alone, 0.05 mg/Kg/day iv, days +1, 2) is recorded as 50%. Further, the “Tox (Number of toxic deaths/number of mice)” value is listed as 0/10 in data set [3] (PNU-152243 alone, 0.05 mg/Kg/day iv, days +1, 2, HCl, 0.05 mg/kg/day) and “without toxicity” in data set [3] (PNU-152243 alone, 0.05 mg/Kg/day iv, days +1, 2, listed as PNU 152243, HCl, 0.05 mg/kg/day). The “Activity on tumor cells resistant to anthracyclines and presenting the mdr phenotype” value in data set [1] is “active”. Moreover, the “Cross-resistance on resistant tumor cells” value in data set [2] (tumor cells resistant to L-PAM or cisplatin (cDDP), or to Topoisomerase II inhibitors (at-multidrug resistant)) was “No cross-resistance”. Besides, the “Optimal i.v. dose, fold less than that of doxorubicin” value in data set [4] is reported as “at least 80 fold”.

With `[NH2][Pt]([NH2])([Cl])[Cl]` [cDDP, cisplatin], the “ILS % (Increased in Life Span)” value in data set [3] (cDDP alone, 5.9 mg/Kg/day iv, day +3) was 33%; in data set [3] (cDDP alone, 7.7 mg/Kg/day iv, day +3), 33%. The “Tox (Number of toxic deaths/number of mice)” value is “without toxicity and 0/10” in data set [3] (cDDP alone, 5.9 mg/Kg/day iv, day +3, 5.9 mg/kg/day); “without toxicity and 0/10” in data set [3] (cDDP alone, 7.7 mg/Kg/day iv, day +3, 7.7 mg/kg/day).
